The values below come from patent EP0133795B1 (THE McLEAN HOSPITAL CORPORATION, priority 1983, dated 1985).

A short description of data set [1]: Enzymatic hydrolysis of cholesteryl [14C]GABA ester by rat brain homogenate. As to conditions: 3 mg/ml, 37°C, S1 fractions of rat brain homogenates (0.8 mg/ml of protein). It counts as in vitro ADME. From the text:
Cholesterol hydrolases and esterases are present in mammalian brain tissue.

Another data set concerns general motor activity. Description: General motor activity of rats (dose-response, Fig. 1). Type of data set: in vivo. As to conditions: n = 6 per dose. From the text: • Figures 1A and 1 B show the effects of cholesteryl-GABA on general motor activity.
A short description of data set [2]: n-Octanol/water partition coefficient. Type of data set: physicochemical. As to conditions: 5 ml n-octanol / 5 ml water, stirring 18 hours. The procedure:
A Partition Coefficient was defined by the equation: [formula] representing the amount of the ester taken up per ml of n-octanol relative to the amount of the same compound taken up per ml of water.
The n-octanol/water partition coefficients were obtained from measurements of the distribution of 1, 3, 5 and 6 pmol quantities of each ^14C-labeled compound into a mixture of 5 ml of n-octanol and 5 ml water. At each concentration, the amount of labeled compound in the aqueous and n-octanol phases was calculated from the amount of radioactive material present after stirring for 18 hours.

Data set [3] relates to general motor activity of mice. Nature of the data set: General locomotor activity of mice (Stoelting electronic activity monitor). It counts as in vivo, Balb/c mice.
The next data set deals with GABA "receptors". Nature of the data set: Inhibition of [3H]GABA binding to synaptic membranes from rat cerebellum. As to conditions: [3H]GABA (15 nM); synaptic membrane preparations from rat cerebellum. The method, then:
IC50 values were determined by fitting data to linearized transformations, based on including at least two concentrations of antagonists above and below the IC50, with at least triplicate replication per concentration.

By IC50 is commonly meant the concentration at which inhibition is half-maximal. Turning to “(3-Cholesteryl)-gamma-Aminobutyrate [Compound 6]”, the “Amount of Unreacted Substrate (6)” value in data set [1] (10 min, 40 μl aliquots, TLC) amounted to 53.0 ± 7.0 nmol; in data set [1] (30 min), 43.5 ± 6.3 nmol; in data set [1] (60 min), 34.5 ± 4.9 nmol. The “i.p. injected dose at which motor activity was reduced by 50%” value in the data set on general motor activity was 8 µmol/kg; in data set [3] (mice, Fig. 1, n = 6 per dose, 60 min), 17 µmol/kg. In addition, in data set [2], the “KOW: Octanol/Water Partition Coefficient” value is reported as 110. For the same substance, the “In Vivo Inhibition of General Motor Activity” value in data set [3] (graded 0-5) is recorded as 5. Also, in data set [3] (i.p., mice), the “activity in the general motor activity test (in words)” value is given as “active”. The substance also displayed an IC50 at GABA "receptors" of 10 µM.
